The subject of series [1] is retinoic acid receptor (α, β and γ). Put plainly: Transactivation of retinoic acid receptors. The class given is cell-based. The settings on record: compared to prior art compounds 39 and 40. The text has this:
Transactivation, which is the ability of a retinoid to activate gene transcription when gene transcription is initiated by the binding of a ligand to the particular retinoic acid receptor being tested, may be determined by using methods described in the art (Apfel et al., Proc. Natl. Acad. Sci., 1992, 89, 7129; Bernard et al., Biochem. And Biophys. Res. Comm., 1992, 186, 977 which is herein incorporated by reference).

Series [2] in a line: Effect of RAR agonists on plasma triglyceride levels. The class given is in vivo, male, Wistar Han rats. The note with it: rat, oral. An excerpt: Sixty male, Wistar Han rats (Charles Rivers Laboratories) were used in this experiment. The received weight of the rats varied between 200-250 gm. The compounds used in this study were formulated in Miglyol 812, Batch 000719, Product #6330 (Condea) with 0.01% BHA and 0.01% BHT. Three RAR agonists, illustrated below, were compared with regards to their effects on triglyceride levels. Compounds 39 and 40 are prior art compounds (see, Hashimoto, Yuichi; Kagechika, Hiroyuki; Kawachi, Emiko; Fukasawa, Hiroshi; Saito, Go; Shudo, Koichi. “Evaluation of differentiation-inducing activity of retinoids on human leukemia cell lines HL-60 and NB4” Biol. Pharm. Bull. (1996), 19(10), 1322-1328; and Takagi, Kanji; Suganuma, Masami; Kagechika, Hiroyuki; Shudo, Koichi; Ninomiya, Mitsuo; Muto, Yasutoshi; Fujiki, Hirota. “Inhibition of ornithine decarboxylase induction by retinobenzoic acids in relation to their binding affinities to cellular retinoid-binding proteins” J. Cancer Res. Clin. Oncol. (1988), 114(3), 221-4, while compound 27 is a compound prepared in Example 7, herein.
Animals were dosed with compounds 27, 39 and 40 or vehicle for two weeks (one 1.0 mL dose a day, total of 10 doses) by oral administration. Doses were 0.3 mg/kg, 1 mg/kg and 3 mg/kg. Animals were weighed twice a week for monitoring gross toxicity (% weight change and mucutaneous).
Animals were fasted for at least 4 hours before terminal blood collection. At the end of the experiment the animals were placed under deep anesthesia using pentobarbital ip (30-40 mg). Five to six ml of blood was collected via cardiac puncture for blood chemistry (Quality Clinical Lab, Mountain View, Calif.) and PK analysis (terminal). Animals were euthanized by exsanguination from the abdominal aorta or cervical dislocation. Plasma was collected and stored at −20
Quantitation of triglycerides contained in rat plasma may be performed using established procedures. […] Hydrogen peroxide may be quantitated […] in a Hitachi 911 Chemistry Analyzer. […]

Series [3] has as its system rat model of elastase-induced emphysema. Put plainly: Alveolar repair in the rat model of elastase-induced emphysema. The series is classed as in vivo, male Sprague Dawley rats. The settings on record: oral once per day, lower dosage levels (0.01 or 0.001 mg/kg), p≦0.05, FIG. 1. The text has this:
Compounds of the invention may be evaluated for their effects on alveolar repair in the rat model of elastase-induced emphysema (Massaro et al., Nature, 1997, Vol. 3, No. 6: 675; Massaro et al., U.S. Pat. No. 5,998,486). Preferably, animals are divided into treatment groups of approximately eight. Lung inflammation and alveolar damage may be induced in male Sprague Dawley rats by a single instillation of about 2 U/gram body mass of pancreatic elastase (porcine derived, Calbiochem).
Animals may be treated with a compound of the invention formulated Miglyol at convenient oral dosage ranges (preferably, between about 10.0 mg/kg and 0.0001 mg/kg) and will be dosed orally once per day starting 21 days post injury. Control groups are challenged with elastase and 21 days later are treated with vehicle (Miglyol) for 14 days. Animals were sacrificed 24 hours after the last dose by exsanguination under deep anesthesia. Blood was collected at time of exsanguination for analysis.
The lungs are inflated with 10% neutral buffered formalin by intratracheal instillation at a constant rate (1 ml/gram body mass/min). […] The mean value/treatment group may be determined by summing the average area/rat for all eight rats/treatment groups and repair of elastase damage expressed as percentage of repair relative to the elastase+vehicle treated group from the following calculation: […]

The structures appear in SMILES notation. Several values for one entry are separate records, joined by “and”; a condition that tells them apart may be missing. Equal entries are not always repeated. Some results are limits rather than exact numbers.

Data on seven compounds can be found in patent US6844466B2, “Alkyl urea retinoid agonists” (Syntex (U.S.A.) LLC, priority 2001, dated 2005).

Consider `CCCCCCN(C(=O)Nc1ccc(C(=O)O)cc1)c1ccc2c(c1)C(C)(C)CCC2(C)C` [Compound 13, 4-[3-hexyl-3-(5,5,8,8-tetramethyl-5,6,7,8-tetrahydro-naphthalen-2-yl)-ureido]-benzoic acid], for which the melting point fell in the range of 176 to 177 °C.

Consider `CCCCCCCCN(C(=O)Nc1ccc(C(=O)O)cc1)c1ccc2c(c1)C(C)(C)CCC2(C)C` [Compound 25, 4-[3-octyl-3-(5,5,8,8-tetramethyl-5,6,7,8-tetrahydro-naphthalen-2-yl)-ureido]-benzoic acid], for which the melting point is 166 to 167 °C and 165.8 to 167.2 °C.

Regarding `CCCCCN(C(=O)Nc1ccc(C(=O)O)cc1)c1ccc2c(c1)C(C)(C)CCC2(C)C` [Compound 27, 4-[3-pentyl-3-(5,5,8,8-tetramethyl-5,6,7,8-tetrahydro-naphthalen-2-yl)-ureido]-benzoic acid], the “selectivity of transactivation among RAR α, β and γ” value (“selectivity” for short) in series [1] is “unexpectedly selective at activating transcription activity through the gamma receptor”. The “triglyceride levels expressed as a percentage relative to vehicle control (100%)” value in series [2] (two weeks (10 doses), at the higher dose, FIG. 2) is less than 100%. Besides, the “elevation of triglyceride levels relative to vehicle control (in words)” value in series [2] (two weeks, 0.3, 1 and 3 mg/kg) is “did not significantly elevate triglycerides levels”. Further, the alveolar repair result in series [3] is listed as “significant”.

Consider `CC1(C)CCC(C)(C)c2cc(NC(=O)Nc3ccc(C(=O)O)cc3)ccc21` [Compound 39, reference compound], for which the “selectivity” value in series [1] is “pan-agonists”.

`CN(C(=O)Nc1ccc(C(=O)O)cc1)c1ccc2c(c1)C(C)(C)CCC2(C)C` [Compound 40, reference compound]: the “selectivity” value in series [1] was “pan-agonists”. Moreover, the “dose dependence of triglyceride levels” value in series [2] (two weeks, 0.3, 1 and 3 mg/kg) is “triglyceride levels increasing with increasing dosage”.

Turning to `CCCN(C(=O)Nc1ccc(C(=O)O)cc1)c1ccc2c(c1)C(C)(C)CCC2(C)C` [Compound 55], the melting point fell in the range of 175 to 186 °C. Further, the “selectivity” value in series [1] is “unexpectedly selective at activating transcription activity through the gamma receptor”.

Compound `CCCCCN(C(=O)Nc1ccc(C(=O)O)cc1F)c1ccc2c(c1)C(C)(C)CCC2(C)C` [Compound 57, 3-fluoro-4-[3-pentyl-3-(5,5,8,8-tetramethyl-5,6,7,8-tetrahydro-naphthalen-2-yl)-ureido]-benzoic acid] showed a melting point of 150.9 to 157.4 °C.

Broadly, the melting point is the temperature of the solid-liquid transition.
